Our source for the GI50 and TGI values is PubChem BioAssay (NCI).

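The compound was tested at five concentrations on cells cultured in 96-well plates, with a 48-hour exposure period. GI50 = concentration required for 50% inhibition of growth. TGI: total growth inhibition.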

Holding throughout (experiment): NCI anticancer screen, dose series, 48 h
Experiment [1] concerns HCC-2998 colon.
In experiment [2] the test system is IGROV1 ovarian.
For experiment [3], the system named is M14 melanoma.
In experiment [4] the test system is MCF7 breast.
Experiment [5] relates to MDA-MB-231 breast.
For experiment [6], the system named is NCI-H522 lung.
For experiment [7], the system named is OVCAR-8 ovarian.
The test system of experiment [8] is SK-MEL-28 melanoma.
The test system of experiment [9] is SK-OV-3 ovarian.
For experiment [10], the system named is SW-620 colon.

Take `CCOC(=O)CC1C(CNC(=O)NC)OC(n2cnc3c(NC(=O)Nc4ccccc4)ncnc32)C1O[Si](C)(C)C(C)(C)C` (stereo not given): the GI50 in experiment [1] is above 100 µM; in [2], 3.85 µM; in experiment [3] it was 2.51 µM; in experiment [4], 3.42 µM; in experiment [5], 3.96 µM; in experiment [6], 4.36 µM. Besides, the GI50 in [7] was 4.92 µM; in experiment [8], 6.85 µM; in experiment [9] it was 21 µM; in [10], 4.8 µM. The TGI is above 100 µM in experiment [1]; 18 µM in experiment [2]; 11.6 µM in [3]; 45.1 µM in [4]; 41.3 µM in experiment [5]; 85.7 µM in [6]. Moreover, the TGI in experiment [7] is 77.2 µM; in experiment [8], 20.2 µM; in experiment [9], above 100 µM; in experiment [10], 28.4 µM.
Regarding `CCN(CC)CCOc1ccccc1-n1c(C)ccc1-c1ccccc1`, the GI50 in experiment [1] is 13.9 µM; in experiment [2] it was 14.8 µM; in experiment [3], 17 µM; in experiment [4], 13 µM; in experiment [5], 6.54 µM; in experiment [6], 11.6 µM. For the same compound, the GI50 was 16.7 µM in [7], 15.7 µM in [8], 17.3 µM in experiment [9] and 15.2 µM in [10]. The TGI was found to be 28.5 µM in experiment [1]; 31.8 µM in experiment [2]; 34.2 µM in experiment [3]; 26.7 µM in experiment [4]; 20.7 µM in experiment [5]; 28.3 µM in experiment [6]. Besides, the TGI in experiment [7] came out at 33.4 µM; in [8] it was 29.7 µM; in experiment [9], 31.4 µM; in [10], 31.8 µM.
For the compound `Cc1cc(O)cc(-c2nn(C)cc2-c2cc(N3CCOCC3)nc(-c3cccnc3)n2)c1`, the GI50 was 13.9 µM in [1]; 4.27 µM in experiment [2]; 3.55 µM in experiment [3]; 1.13 µM in [4]; 5.82 µM in [5]; 2.79 µM in experiment [6]. Moreover, the GI50 in [7] is 7.11 µM; in experiment [8] it was 3.8 µM; in [9], 6.83 µM; in experiment [10], 8.14 µM. The TGI in experiment [1] turned out to be 49.5 µM; in [2] it was 72.6 µM; in experiment [3] it was 15.8 µM; in experiment [4] it was 18.1 µM; in experiment [5] it was 38 µM; in experiment [6] it was 18.1 µM. Besides, the TGI was above 100 µM in experiment [7], 21.1 µM in experiment [8], 43.7 µM in experiment [9] and 48.1 µM in experiment [10].
Take `CN1CCN(c2ccc(NC(=O)c3cncnc3Nc3ccc4c(ccn4Cc4cccc(F)c4)c3)cc2)CC1`: the GI50 is 3.03 µM in [1]; 2.29 µM in experiment [2]; 0.616 µM in experiment [3]; 1.15 µM in [4]; 1.34 µM in experiment [5]; 1.63 µM in [6]. In addition, the GI50 is 3.8 µM in experiment [7], 0.533 µM in [8], 5.09 µM in [9] and 0.828 µM in experiment [10]. The TGI turned out to be 7.4 µM in experiment [1]; 6.92 µM in [2]; 1.22 µM in [3]; 5.02 µM in experiment [4]; 5.03 µM in experiment [5]; 6.59 µM in experiment [6]. The TGI in [7] turned out to be 10.6 µM; in [8], 1.01 µM; in [9], 9.78 µM; in experiment [10] it was 2.35 µM.
Take `N#Cc1cc2c(=S)[nH]c(=S)[nH]c2nc1SCc1ccccc1`: the GI50 in experiment [1] is 24.6 µM; in [2], 55.8 µM; in [3], 58.2 µM; in [4], 50.6 µM; in experiment [5] it was 21.7 µM; in [6], above 100 µM. The GI50 in experiment [7] was 58.1 µM; in experiment [8], 69.7 µM; in experiment [9], above 100 µM; in experiment [10] it was 48.9 µM. The TGI is 79 µM in [1]; above 100 µM in experiment [2]; above 100 µM in experiment [3]; above 100 µM in experiment [4]; 87.4 µM in experiment [5]; above 100 µM in experiment [6]. For the same compound, the TGI in experiment [7], in experiment [8], in experiment [9] and in experiment [10] was above 100 µM throughout.
As for `CCN(CC)CCC(CNc1c(C)cnc2cc(Cl)ccc12)c1ccc(Cl)c(Cl)c1` (stereo not given), the GI50 in experiment [1] is 1.77 µM; in experiment [2] it was 2.26 µM; in [3] it was 1.82 µM; in experiment [4] it was 1.79 µM; in experiment [5] it was 2.43 µM; in [6], 3.78 µM. Also, the GI50 in [7] was 9.89 µM; in [8], 1.97 µM; in [9], 14.4 µM; in [10] it was 2.14 µM. The TGI was 3.36 µM in experiment [1]; 12.1 µM in [2]; 3.63 µM in [3]; 4.15 µM in experiment [4]; 7.06 µM in [5]; 16 µM in experiment [6]. In addition, the TGI in [7] came out at 24.9 µM; in experiment [8], 3.83 µM; in experiment [9] it was 28 µM; in experiment [10], 7 µM.
For `CCN1C(=O)N[C@H]2[C@@H]3NC(=O)c4ccc(Cl)n4[C@@H]3C[C@]21O`, the GI50 is 0.607 µM in experiment [1]; 0.471 µM in experiment [2]; 0.352 µM in experiment [3]; 0.242 µM in [4]; 0.822 µM in experiment [5]; 0.288 µM in experiment [6]. The GI50 in experiment [7] is 0.533 µM; in experiment [8], 0.311 µM; in [9] it was 2.07 µM; in experiment [10], 0.511 µM. The TGI in [1] was 4.79 µM; in experiment [2], 6.46 µM; in experiment [3], 2.66 µM; in [4] it was 1.5 µM; in experiment [5], 7.25 µM; in experiment [6], 1.76 µM. Moreover, the TGI in experiment [7] is 9.01 µM; in experiment [8] it was 3.03 µM; in experiment [9], 7.56 µM; in [10], above 100 µM.
As to `COc1ccc2c3c1OC1C4(CCC5C(C2)N(CC2CC2)CCC351)OCCO4` (stereo not given), the TGI in experiment [1], in experiment [2], in experiment [3], in experiment [4], in [5] and in experiment [6] was above 100 µM in each case. Besides, the TGI in [7], in experiment [8], in experiment [9] and in [10] was above 100 µM each time.
